Where no end group is shown, it is not given here. siRNA = not defined here
Assays:
iDCs [1] = test: Peptide binding by flow cytometry; design: species or system human
Protocol: The cells were seeded onto 24-well plate (3×10^5/well/0.5 ml) in X-vivo 15 medium and incubated overnight at 37° C. Subsequently, they were incubated with 6IAF-conjugated peptides (5 μg/ml) for 30 min at 37° C., gently scraped, washed 3 times and then analyzed by flow cytometry. Binding was also performed at 4° C.

iDC = test: Competition of NW phage binding by synthetic peptides; design: species or system human
Protocol: (§1) In brief, aliquots of DCs (10^5) were divided into conical 96-well micro-plate, washed with PBS buffer containing 1% FCS, and then incubated with the amplified phages (≈10^9 TU) for 30-60 min on ice. After washing, cells were incubated with biotinylated anti-M13 monoclonal antibody (Abcam) and then with phycoerythrin (PE)-conjugated streptavidin. Competition assays were performed by pre-incubating DCs with different amounts of the peptides for 15 min on ice. Then NW phage (≈10^9 TU) was added and samples incubated for additional 60 min on ice. After washing, bound phages were detected as indicated above. Samples were analyzed by FACSCanto II flow cytometry.
To further investigate the importance of the NW peptide on phage binding, competition experiments were performed using synthetic peptides.

Monocytes = test: Competition of NW phage binding by NW peptide and its mutant peptides; design: species or system human; conditions: for competition with NW phage binding / peptide binding to monocytes: mutant peptides, four concentrations (0.4, 2, 8, 20 μM)
Protocol: as §1
To uncover the contribution of individual side chains and identify which amino acids are responsible for the NW peptide binding to monocytes and dendritic cells, alanine scanning was performed. Derivatives of the NW peptide were synthesized with exchange of each amino acid by alanine (FIG. 11A). These peptide derivatives were used to compete with the NW phage binding to monocytes. For each peptide, four concentrations were tested. Bound phage particles were detected with the use of biotin conjugated anti-M13 antibody and PE-conjugated streptavidin. The NW peptide (WT) competed effectively with the phage binding to monocytes with an IC50 of approximately 0.5 uM. The replacement of tryptophan (W) at position 2, 6, or 12 by a single alanine abolished the binding. Indeed, no significant competition with the phage binding was seen even at high peptide concentrations (C4=20 uM). Similarly, replacement of leucine (L) at position 4 or 7 by alanine inhibited the peptide binding (FIG. 11B).

iDCs [2] = test: Phage binding by flow cytometry; design: species or system human; conditions: binding of the phage clones to iDC, flow cytometry
Protocol: as §1

iDCs [3] = test: Binding and internalization of peptide-siRNA conjugates by microscopy; type: cell-based, human
Protocol: Then the medium was replaced with fresh medium and the cells were incubated with the peptides (5 μg/ml) for 60 min at 37° C. followed by 5 min incubation with Hoechst 33342 (Invitrogen Dynal AS, Oslo, Norway). The cells were washed twice with PBS and fixed with 4% paraformaldehyde for 15 min at 4° C. After washing, slides were covered with Dako cytomation fluorescent mounting medium and then images were taken with either epifluorescence (Leica DM RHC, Leica Microscopy As, Oslo, Norway) or confocal microscopy (Zeiss LSM 510, […]).
One of the major challenges to the clinical development of gene silencing by small interfering RNA (siRNA) is its effective delivery to target cells (Whitehead et al., Nat Rev Drug Discov 8, 129-138). Given the effective internalization of NW peptide by DCs, its potential to direct siRNAs to DCs was evaluated. First, a fluorescence labeled siRNA targeting mouse IL-10 was covalently conjugated to the NW-peptide (NW peptide with GGGSC (SEQ ID NO:43) linker) through a thiol linkage and then the binding of the conjugates to iDCs was investigated by epifluorescence microcopy. In contrast to free siRNA molecules, the peptide siRNA conjugates bound to DCs (FIG. 10A).

[4] = system: autologous CD4 or CD8 T cells; test: Autologous stimulation of T lymphocytes by DCs exposed to targeted pp65 peptides, [3H] thymidine incorporation; type: cell-based, human; conditions: semi mDCs loaded at 4° C., HLA-A2+/CMV positive donors, 5 days
Protocol: (§2) Peptides at a concentration of 5 μg/ml were incubated with semi mDCs from HLA-A2/CMV-positive donors for 60 min at 4° C. Subsequently, they were washed to remove unbound peptides. Autologous stimulation was done in 96-well tissue culture plates in X-vivo 15 medium. Briefly, DCs were mixed with 10^5 autologous CD4 or CD8 T cells at a DC/lymphocytes ratios of 1/5 and 1/10 in a final volume of 250 μl. Cells were incubated for 5 days and then they were pulsed with [^3H] thymidine and harvested 16 h later. [^3H] thymidine incorporation was measured in a β-scintillation counter. In some experiments, the cells were cultured for 8 days and then stained with dextramers specific for pp65 NLVPMVATV (SEQ ID NO:19) epitope.
The capacity of the NW-pp65 fusion peptide (60-mer) to activate T cells from HLA-A2+/CMV positive donors was evaluated. It should be noted that the 48-mer pp65 peptide contains both MHC class I (e.g. NLVPMVATV) (SEQ ID NO:19) and class II (e.g. AGILARNLVPMVATV (SEQ ID NO:23), FFWDANDIYRI (SEQ ID NO:24)) epitopes, allowing the detection of CD4 and CD8 T-cell responses (24-26). […] All cultures were incubated at 37° C. for 5 days and T-cell activation was determined by measuring their proliferation potential (FIG. 6A). […]

[5] = system: CD8 T cells specific for the NLVPMVATV epitope; test: Dextramer staining of CD8 T cells after stimulation with peptide-exposed DCs; type: cell-based, human; conditions: DC-stimulated CD8 T cells, CMV positive donors, equal molar concentrations, n=3
Protocol: as §2
(§3) Dextramers with CMV (NLVPMVATV) (SEQ ID NO:19) and HIV (ILKEPVHGV) (SEQ ID NO:22) HLA-A2 specific antigens were obtained from Immudex (Copenhagen, Denmark). Antibodies against human CD8, CD19 and CD56 were obtained from eBioscience (San Diego, Calif., USA). […] Cells were washed and resuspended in SB containing 1% paraformaldehyd and analyzed on a BD SLR II flow cytometer. The data were analyzed using FCS Express (De Novo Software, Los Angeles, Calif., USA).

[6] = system: pp65-specific naïve T cells; test: Induction of CMV-pp65-specific T cells from naive donor repertoire, dextramer staining; type: cell-based, human; conditions: CD45RO-depleted PBMCs, HLA-A2+/CMV negative donors, IL-7, representative example
Protocol: (§4) PBMC from HLA-A2/CMV+ donors were thawed, washed and then incubated with the peptides (5 μg/ml) for 60 min at 4° C. Subsequently, the cells were washed twice and then plated at 2×10^5 cells per well in 96-well tissue culture plate. Cells were cultured for 5 days and subsequently they were pulsed with [^3H] thymidine and harvested 16 h later. In some experiments, the cells were cultured for 12 days and then stained with dextramers specific for pp65 NLVPMVATV (SEQ ID NO:19) epitope. Monocyte-depleted PBMCs were also used. To analyze primary immune responses against pp65 protein, PBMCs from HLA-A2+/CMV-negative donors were used. Autologous DCs were incubated with either NW-pp65 or GA-pp65 peptide (5 μg/ml) at 4° C. for 1 h, followed by three washes to remove unbound peptides. Subsequently, the cells were incubated with CD45RO-depleted PBMC (responder cells) and co-cultured for 10 days at ratio 1/10 (DC to responder cells) in X-vivo 15 medium supplemented with 10 ng/ml human IL-7 for 10 days. […]
as §3, with “Denmark).” for “Denmark). Antibodies against human CD8, CD19 and CD56 were obtained from eBioscience (San Diego, Calif., USA).”, “USA). […]” for “USA).”

PBMCs = test: Autologous stimulation of PBMCs with pp65 targeted peptides, [3H] thymidine incorporation; type: cell-based, human; conditions: whole PBMCs, peptides at 4° C., 5 days at 37° C.
Protocol: as §4, with “days. After 2 rounds of stimulation (8 days each) with autologous DC loaded with peptides, the cells were stained with dextramers specific for pp65 NLVPMVATV (SEQ ID NO:19) epitope. To test spontaneous uptake of peptides by DCs, PBMCs from HLA-A2+/CMV positive donors were incubated at 37° C. with various concentrations of untargeted or targeted pp65 peptide for 90 min.” for “days.”

[7] = system: CD8 T cells against NLVPMVATV epitope; test: Dextramer staining of CD8 T cells after PBMC stimulation with pp65 peptides; type: cell-based, human
Protocol: PBMC from HLA-A2/CMV+ donors were thawed, washed and then incubated with the peptides (5 μg/ml) for 60 min at 4° C. Subsequently, the cells were washed twice and then plated at 2×10^5 cells per well in 96-well tissue culture plate. Cells were cultured for 5 days and subsequently they were pulsed with [^3H] thymidine and harvested 16 h later. In some experiments, the cells were cultured for 12 days and then stained with dextramers specific for pp65 NLVPMVATV (SEQ ID NO:19) epitope. Monocyte-depleted PBMCs were also used. To analyze primary immune responses against pp65 protein, PBMCs from HLA-A2+/CMV-negative donors were used. Autologous DCs were incubated with either NW-pp65 or GA-pp65 peptide (5 μg/ml) at 4° C. for 1 h, followed by three washes to remove unbound peptides. Subsequently, the cells were incubated with CD45RO-depleted PBMC (responder cells) and co-cultured for 10 days at ratio 1/10 (DC to responder cells) in X-vivo 15 medium supplemented with 10 ng/ml human IL-7 for 10 days. After 2 rounds of stimulation (8 days each) with autologous DC loaded with peptides, the cells were stained with dextramers specific for pp65 NLVPMVATV (SEQ ID NO:19) epitope. To test spontaneous uptake of peptides by DCs, PBMCs from HLA-A2+/CMV positive donors were incubated at 37° C. with various concentrations of untargeted or targeted pp65 peptide for 90 min. Subsequently, the cells were washed to remove unbound peptides and cultured at 37° C. for 12 days and then stained with dextramers specific for pp65 NLVPMVATV (SEQ ID NO:19) epitope.
Dextramers with CMV (NLVPMVATV) (SEQ ID NO:19) and HIV (ILKEPVHGV) (SEQ ID NO:22) HLA-A2 specific antigens were obtained from Immudex (Copenhagen, Denmark). Antibodies against human CD8, CD19 and CD56 were obtained from eBioscience (San Diego, Calif., USA). Briefly, around 10^6 cells were washed and resuspended in 50 μl staining buffer SB (PBS with 0.1% human serum albumin and 0.1% NaN3) containing 1 mg/ml aggregated α-globulin and then stained with dextramer for 10 min in the dark at room temperature. Subsequently, antibodies against CD8, CD19 and CD56 were added and incubation continued for additional 20 min. Cells were washed and resuspended in SB containing 1% paraformaldehyd and analyzed on a BD SLR II flow cytometer. The data were analyzed using FCS Express (De Novo Software, Los Angeles, Calif., USA).
Monocytes have the capacity to differentiate into macrophages or inflammatory DCs in-vitro and in-vivo (Auffray et al., (2009) Annu Rev. Immunol. 27, 669-92). Given that the NW peptide bound to blood monocytes, it was investigated whether this binding affects T-cell activation. Therefore, proliferation assays were performed with whole PBMCs. […]

[8] = system: PBMC cultures from CMV-positive donors; test: IFN-γ production in PBMC cultures; type: cell-based, human; conditions: PBMCs from HLA-A2+/CMV positive
Protocol: (A) PBMCs from HLA-A2+/CMV-positive donors were incubated with the indicated fusion peptides for 60 min at 4° C., washed and then incubated at 37° C. for […]. T-cell proliferation was monitored by thymidine incorporation. (B) Dextramer staining of CD8 T cells against NLVPMVATV (SEQ ID NO:19) epitope. (C) As in A and B, but monocyte-depleted PBMCs were used. (D) INF-γ and IL-10 levels in PBMC culture supernatants determined by ELISA.
Next, the immunostimulatory potential of the NW-pp65 fusion peptide was evaluated by assessing its ability to stimulate the overall IFN-γ and IL-10 production in PBMC cultures from CMV-positive donors (FIG. 8D).

[9] = target: NW peptide receptor (human); test: competition with NW phage binding to monocytes, flow cytometry

GALDTTHHRPWTC [control peptide, irrelevant control peptide, reference compound]
binding of 6-IAF-conjugated peptides to iDCs (iDCs [1]; 4° C. and 37° C.): no significant binding | inhibition of the phage binding to iDC by synthetic peptides (iDC): but not an irrelevant control peptide, effectively inhibited

Deletion of N10D11: NW peptide with N10 and D11 deleted; likely NWYLPWLGTW (SEQ ID NO:38)
reduction in IC50 relative to NW peptide (Monocytes; monocytes): approximately 20 fold | competition with NW phage binding / peptide binding to monocytes (Monocytes): reduced the binding

GETRAPL [DC19]
Binding (iDCs [2]): +++ (binding <80%: +++)

NWYGAGAGTNDW [NW-mutant, NW-peptide lacking the motif LPWL]
inhibition of the phage binding to iDC by synthetic peptides (iDC): failed to reduce binding

peptide siRNA conjugates: fluorescence labeled siRNA targeting mouse IL-10 covalently conjugated to NW peptide with GGGSC linker through a thiol linkage (NWYLPWLGTNDWGGGSC(siRNA); not fully specified; reading uncertain)
intracellular delivery of peptide-siRNA conjugates (iDCs [3]; confocal microscopy): confirmed the intracellular delivery | binding of peptide siRNA conjugates to DCs (iDCs [3]; epifluorescence microscopy, iDCs): bound to DCs

QLPRTAL [DC10]
Binding (iDCs [2]): +++ (binding <80%: +++)

NWYLPWLGTNDWAGILARNLVPMVATVQGQNLC [NW-33-mer, CMV pp65 peptide fused to NW peptide]
binding of 6IAF-conjugated pp65 fusion peptides to DCs (iDCs [1]; iDCs): bound to iDCs

N10D11 double mutant: NW peptide with asparagine 10 and aspartic acid 11 both replaced by alanine (NWYLPWLGTAAW)
mean fluorescence of bound phage (Monocytes; at C3 concentration (8 μM), unstained cells 250): ~250 | competition with NW phage binding / peptide binding to monocytes (Monocytes): effectively competed

QWELPWLMQPPL [DC6]
Binding (iDCs [2]): ++++ (Binding >80-100%: ++++)

SPGLSLVSHMQT [DC13]
Binding (iDCs [2]): +++ (binding <80%: +++)

GALDTTHHRPWTGCFTWPPWQAGILARNLVPMVATVQGQNLKYQEFFWDANDIYRIFAEL [GA-60-mer, 48-mer CMV pp65 peptide fused to control peptide, reference compound]
T-cell activation (proliferation, [3H]-thymidine) [4]: no significant effect | dextramer-positive CD8 T cells specific for NLVPMVATV [5]: 0.51% | pp65-specific naïve T cells (dextramer staining) [6]: 0.01% | T-cell proliferation ([3H]-thymidine) (PBMCs): did not | CTL response (dextramer staining) ([7]; monocyte-depleted PBMCs): 0.53% | CTL response (dextramer staining) ([7]; whole PBMCs, n=3): 0.45% | proportion of CD8 and CD4 T cells that produced IFN-γ [8]: very low response

NWYLPWLGTNDWC (also: carries 6-iodoacetamidofluorescein in direct binding assays) [NW peptide]
IC50 [9]: 500 nM

Reference: patent US20160083424A1, “COMPOSITIONS AND METHODS FOR TARGETING ANTIGEN-PRESENTING CELLS” (OSLO UNIVERSITETSSYKEHUS HF, priority 2013, published 2016)
